Columns and labels:
human MC1R [1] = molecular target: T1, human MC1R (Homo sapiens, UniProt Q01726); test: Melanocortin receptor radioligand binding (SPA, [125I]-NDP-α-MSH displacement), MC1R; conditions: competitive binding, mean (± SEM) of at least three independent experiments, read-out: IC50 hMC1R binding
T1 construct: expressed in transfected cells

human MC3R [2] = molecular target: T2, human MC3R (Homo sapiens, UniProt P41968); test: Melanocortin receptor radioligand binding (SPA, [125I]-NDP-α-MSH displacement), MC3R; conditions: competitive binding, mean (± SEM) of at least three independent experiments, read-out: IC50 hMC3R binding
T2 construct: expressed in transfected cells

human MC4R [3] = molecular target: T3, human MC4R (Homo sapiens, UniProt P32245); test: Melanocortin receptor radioligand binding (SPA, [125I]-NDP-α-MSH displacement), MC4R; conditions: competitive binding, mean (± SEM) of at least three independent experiments, read-out: IC50 hMC4R binding
T3 construct: expressed in transfected cells

human MC5R = molecular target: T4, human MC5R (Homo sapiens, UniProt P33032); test: Melanocortin receptor radioligand binding (SPA, [125I]-NDP-α-MSH displacement), MC5R; conditions: competitive binding, [125I]-NDP-α-MSH; mean (± SEM) of at least three independent experiments; read-out: IC50 hMC5R binding
T4 construct: expressed in transfected cells; host or cells: HEK293-6E suspension cells, transient expression; membranes

human MC1R [4] = molecular target: T1, human MC1R; test: cAMP assay (LANCE) in T-Rex-293 cells expressing MC1R; format: cell-based; conditions: for Emax: T-REx-293, read-out: % Effect hMC1R cAMP; for EC50: cAMP assay, mean (± SEM) of at least three independent experiments, read-out: EC50 hMC1R cAMP
human MC3R [5] = molecular target: T2, human MC3R; test: cAMP assay (LANCE) in T-Rex-293 cells expressing MC3R; format: cell-based; conditions: cAMP assay; mean (± SEM) of at least three independent experiments; read-out: EC50 hMC3R cAMP
human MC4R [6] = molecular target: T3, human MC4R; test: cAMP assay (LANCE) in T-Rex-293 cells expressing MC4R; format: cell-based; conditions: cAMP assay; mean (± SEM) of at least three independent experiments; read-out: EC50 hMC4R cAMP

T1 sequence (Q01726 whole entry): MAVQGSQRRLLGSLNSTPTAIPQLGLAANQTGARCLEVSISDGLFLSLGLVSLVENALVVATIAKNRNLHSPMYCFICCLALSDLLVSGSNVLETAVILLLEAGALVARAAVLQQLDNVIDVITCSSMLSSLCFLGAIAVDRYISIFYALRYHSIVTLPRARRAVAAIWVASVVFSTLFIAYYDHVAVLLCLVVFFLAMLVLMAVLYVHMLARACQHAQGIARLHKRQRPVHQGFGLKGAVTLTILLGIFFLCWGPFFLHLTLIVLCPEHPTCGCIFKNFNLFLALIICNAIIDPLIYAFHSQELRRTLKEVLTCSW
T3 sequence (P32245 whole entry): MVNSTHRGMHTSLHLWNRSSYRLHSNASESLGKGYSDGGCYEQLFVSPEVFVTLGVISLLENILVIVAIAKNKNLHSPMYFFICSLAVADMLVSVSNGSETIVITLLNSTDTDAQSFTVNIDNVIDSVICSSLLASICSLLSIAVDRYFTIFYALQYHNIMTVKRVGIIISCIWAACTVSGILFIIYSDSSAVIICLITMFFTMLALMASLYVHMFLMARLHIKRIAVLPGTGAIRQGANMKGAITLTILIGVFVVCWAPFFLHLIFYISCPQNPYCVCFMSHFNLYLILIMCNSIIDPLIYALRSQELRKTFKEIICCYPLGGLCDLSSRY
T2 sequence (P41968 whole entry): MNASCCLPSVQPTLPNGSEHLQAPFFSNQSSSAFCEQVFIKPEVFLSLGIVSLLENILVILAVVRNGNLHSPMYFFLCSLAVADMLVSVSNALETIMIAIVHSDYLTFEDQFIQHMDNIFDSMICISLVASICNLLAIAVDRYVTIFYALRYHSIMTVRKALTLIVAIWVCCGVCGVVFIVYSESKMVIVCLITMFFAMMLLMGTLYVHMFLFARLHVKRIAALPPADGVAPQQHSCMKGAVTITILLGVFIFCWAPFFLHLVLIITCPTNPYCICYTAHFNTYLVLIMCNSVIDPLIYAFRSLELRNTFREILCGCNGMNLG
T4 sequence (P33032 whole entry): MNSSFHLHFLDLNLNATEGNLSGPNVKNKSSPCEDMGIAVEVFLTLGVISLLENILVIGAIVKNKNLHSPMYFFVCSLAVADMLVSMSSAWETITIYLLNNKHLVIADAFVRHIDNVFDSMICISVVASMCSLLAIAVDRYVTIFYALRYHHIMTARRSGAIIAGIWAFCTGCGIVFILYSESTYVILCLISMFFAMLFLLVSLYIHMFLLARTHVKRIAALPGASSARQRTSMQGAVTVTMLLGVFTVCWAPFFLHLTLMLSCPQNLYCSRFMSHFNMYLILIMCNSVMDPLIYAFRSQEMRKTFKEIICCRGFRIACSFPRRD

| SMILES | IC50 (human MC1R [1]) | IC50 (human MC3R [2]) | IC50 (human MC4R [3]) | IC50 (human MC5R) | Emax (human MC1R [4]) | EC50 (human MC1R [4]) | EC50 (human MC3R [5]) | EC50 (human MC4R [6]) | % Effect hMC1R cAMP (human MC1R [4]; Emax (curve plateau), relative to NDP-α-MSH, NA = No Activity detected, threshold 20% effect) |
| --- | --- | --- | --- | --- | --- | --- | --- | --- | --- |
| C[C@@H]1NC(=O)[C@H](CC(N)=O)NC(=O)[C@H](Cc2ccccc2)NC(=O)[C@H](Cc2ccccc2)NC(=O)[C@H](CCCNC(=N)N)NC(=O)[C@H](Cc2ccccc2)N(C)C(=O)[C@@H]2N[C@H](c3ccc(cc3)C(=O)NCCCC[C@@H](C(=O)N[C@@H](Cc3ccc(O)cc3)C(N)=O)NC(=O)[C@H](Cc3ccccc3)NC1=O)[C@@H]1C(=O)N(C)C(=O)[C@@H]12 [B1-major, [ I-FRFFNAFK ]Y] | 41 ± 2 µM | 32 ± 2 µM | 34 ± 3 µM | 16 ± 2 µM | 37% | 1.8 ± 1.2 µM | > 100 µM | > 100 µM | – |
| C[C@@H]1NC(=O)[C@H](CC(N)=O)NC(=O)[C@H](Cc2ccccc2)NC(=O)[C@H](Cc2ccccc2)NC(=O)[C@H](CCCNC(=N)N)NC(=O)[C@H](Cc2ccccc2)N(C)C(=O)[C@H]2N[C@@H](c3ccc(cc3)C(=O)NCCCC[C@@H](C(=O)NCC(N)=O)NC(=O)[C@H](Cc3ccccc3)NC1=O)[C@H]1C(=O)N(C)C(=O)[C@H]12 [B2-minor, [ I-FRFFNAFK ]G] | > 100 µM | > 100 µM | 96 ± 4 µM | 31 ± 0.4 µM | 39% | 10 ± 2 µM | > 100 µM | > 100 µM | – |
| C[C@@H]1NC(=O)[C@H](CC(N)=O)NC(=O)[C@H](Cc2ccccc2)NC(=O)[C@H](Cc2ccccc2)NC(=O)[C@H](CCCNC(=N)N)NC(=O)[C@H](Cc2ccccc2)N(C)C(=O)[C@H]2N[C@@H](c3ccc(cc3)C(=O)NCCCC[C@@H](C(=O)NCC(N)=O)NC(=O)[C@H](Cc3ccccc3)NC1=O)[C@H]1C(=O)N(c3ccccc3)C(=O)[C@H]12 [B3-major*, [ II-FRFFNAFK]G] | > 10 µM | > 10 µM | > 10 µM | > 10 µM | – | > 10 µM | > 10 µM | > 10 µM | – |
| CCCC[C@H](NC(C)=O)C(=O)N[C@H]1CC(=O)NCCCC[C@@H](C(=O)O)NC(=O)[C@H](Cc2c[nH]c3ccccc23)NC(=O)[C@H](CCCNC(=N)N)NC(=O)[C@@H](Cc2ccccc2)NC(=O)[C@H](Cc2c[nH]cn2)NC1=O [Bremelanotid (BreMT), Bremelanotid, reference compound] | – | – | – | – | – | – | – | – | 97% |
| C[C@@H]1NC(=O)[C@H](CC(N)=O)NC(=O)[C@@H](Cc2ccccc2)NC(=O)[C@@H](Cc2ccccc2)NC(=O)[C@H](CCCNC(=N)N)NC(=O)[C@H](Cc2ccccc2)N(C)C(=O)[C@@H]2N[C@H](c3ccc(cc3)C(=O)NCCCC[C@@H](C(=O)N[C@@H](Cc3ccc(O)cc3)C(N)=O)NC(=O)[C@H](Cc3ccccc3)NC1=O)[C@@H]1C(=O)N(C)C(=O)[C@@H]12 [C1-major, [I-FRffNAFK ]Y] | 23 ± 1 µM | 36 ± 1 µM | 26 ± 2 µM | 13 ± 1 µM | 47% | 1.8 ± 0.3 µM | > 100 µM | > 100 µM | – |
| C[C@@H]1NC(=O)[C@H](CC(N)=O)NC(=O)[C@@H](Cc2ccccc2)NC(=O)[C@@H](Cc2ccccc2)NC(=O)[C@H](CCCNC(=N)N)NC(=O)[C@H](Cc2ccccc2)N(C)C(=O)[C@@H]2N[C@H](c3ccc(cc3)C(=O)NCCCC[C@@H](C(=O)N[C@@H](Cc3ccc(O)cc3)C(N)=O)NC(=O)[C@H](Cc3ccccc3)NC1=O)[C@]1(C(=O)Nc3ccccc31)[C@H]2c1ccccc1 [C2-major, [X-FRffNAFK ]Y] | – | – | – | – | 57% | – | – | – | – |
| C[C@@H]1NC(=O)[C@H](CC(N)=O)NC(=O)[C@@H](Cc2ccccc2)NC(=O)[C@@H](Cc2ccccc2)NC(=O)[C@H](CCCNC(=N)N)NC(=O)[C@H](Cc2ccccc2)N(C)C(=O)C2NC(c3ccc(cc3)C(=O)NCCCC[C@@H](C(=O)N[C@@H](Cc3ccc(O)cc3)C(N)=O)NC(=O)[C@H](Cc3ccccc3)NC1=O)C1(C(=O)Nc3ccccc31)C2c1ccccc1 (stereo partly drawn) [C2-minor, [X-FRffNAFK ]Y] | – | – | – | – | 36% | – | – | – | – |

Second part, the molecule after the results:

| IC50 (human MC1R [1]) | IC50 (human MC3R [2]) | IC50 (human MC4R [3]) | IC50 (human MC5R) | Emax (human MC1R [4]) | EC50 (human MC1R [4]) | EC50 (human MC3R [5]) | EC50 (human MC4R [6]) | % Effect hMC1R cAMP (human MC1R [4]; Emax (curve plateau), relative to NDP-α-MSH, NA = No Activity detected, threshold 20% effect) | SMILES |
| --- | --- | --- | --- | --- | --- | --- | --- | --- | --- |
| 88 ± 1 µM | > 100 µM | 72 ± 4 µM | 36 ± 3 µM | 56% | 2.2 ± 1 µM | > 100 µM | > 100 µM | – | C[C@@H]1NC(=O)[C@H](CC(N)=O)NC(=O)[C@@H](Cc2ccccc2)NC(=O)[C@@H](Cc2ccccc2)NC(=O)[C@H](CCCNC(=N)N)NC(=O)[C@H](Cc2ccccc2)N(C)C(=O)[C@@H]2N[C@H](c3ccc(cc3)C(=O)NCCCC[C@@H](C(=O)NCC(N)=O)NC(=O)[C@H](Cc3ccccc3)NC1=O)[C@@H]1C(=O)N(C)C(=O)[C@@H]12 [C4-major, [I-FRffNAFK ]G] |
| > 100 µM | > 100 µM | > 100 µM | 49 ± 2 µM | 31% | 14 ± 4 µM | > 100 µM | > 100 µM | – | C[C@@H]1NC(=O)[C@H](CC(N)=O)NC(=O)[C@H](Cc2ccccc2)NC(=O)[C@H](Cc2ccccc2)NC(=O)[C@H](CCCNC(=N)N)NC(=O)[C@H](Cc2ccccc2)N(C)C(=O)[C@H]2N[C@@H](c3ccc(cc3)C(=O)NCCCC[C@@H](C(=O)N[C@@H](Cc3ccc(O)cc3)C(N)=O)NC1=O)[C@H]1C(=O)N(C)C(=O)[C@H]12 [F1-major*, [ I-FRFFNAK ]Y] |
| 65 ± 6 µM | 80 ± 5 µM | 57 ± 5 µM | 16 ± 1 µM | 36% | 10 ± 1 µM | > 100 µM | > 100 µM | – | C[C@@H]1NC(=O)[C@H](CC(N)=O)NC(=O)[C@H](Cc2ccccc2)NC(=O)[C@H](Cc2ccccc2)NC(=O)[C@H](CCCNC(=N)N)NC(=O)[C@H](Cc2ccccc2)N(C)C(=O)[C@@H]2N[C@H](c3ccc(cc3)C(=O)NCCCC[C@@H](C(=O)N[C@@H](Cc3ccc(O)cc3)C(N)=O)NC1=O)[C@@H]1C(=O)N(C)C(=O)[C@@H]12 [F1-minor*, [ I-FRFFNAK ]Y] |
| – | – | – | – | 56% | – | – | – | – | CN1C(=O)[C@@H]2N[C@H](c3ccc(cc3)C(=O)NCCCC[C@@H](C(=O)N[C@@H](Cc3ccc(O)cc3)C(N)=O)NC(=O)[C@H](Cc3ccccc3)NC(=O)[C@H](Cc3ccccc3)NC(=O)[C@H](CCCNC(=N)N)NC(=O)[C@@H]1Cc1ccccc1)[C@@H]1C(=O)N(c3ccccc3)C(=O)[C@@H]12 [N1-minor*, [II-FRFFK ]Y] |
| – | – | – | – | 36% | – | – | – | – | CN1C(=O)[C@@H]2N[C@H](c3ccc(cc3)C(=O)NCCCC[C@@H](C(=O)NCC(N)=O)NC(=O)[C@H](Cc3ccccc3)NC(=O)[C@H](Cc3ccccc3)NC(=O)[C@H](CCCNC(=N)N)NC(=O)[C@@H]1Cc1ccccc1)[C@@H]1C(=O)N(c3ccccc3)C(=O)[C@@H]12 [N2-minor*, [II-FRFFK ]G] |
